Experimental data taken from US9783545B2, “Pyrazolopyridazines and methods for treating retinal-degenerative diseases and hearing loss associated with usher syndrome” (Usher III Initiative, Inc., priority 2012, dated 2017).

Target: T1, N48K Clarin-1 (Homo sapiens, UniProt P58418, N48K)
T1 construct: expressed in transfected cells
T1 sequence (P58418 1-232 N48K): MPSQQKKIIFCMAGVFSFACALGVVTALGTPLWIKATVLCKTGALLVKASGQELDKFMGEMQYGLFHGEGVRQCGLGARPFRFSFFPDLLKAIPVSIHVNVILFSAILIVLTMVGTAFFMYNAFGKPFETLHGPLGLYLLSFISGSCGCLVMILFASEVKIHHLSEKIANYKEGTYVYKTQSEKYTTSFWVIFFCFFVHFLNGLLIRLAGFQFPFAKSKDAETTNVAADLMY
Experiment: Restoration of expression of N48K Clarin-1, 24 hour incubation (high content imaging of HA-tagged N48K Clarin-1)
Type: cell-based
Design: IC50: scale not given here
Conditions: HEK293-Clarin-1 N48K-HA D9 cell line, 24 hr incubation with compound
Protocol: Assay Method Showing Activity of Compounds of the Invention that Restore Expression of N48K Clarin-1 (24 hour incubation)
(§1) Clarin-1 is the protein encoded by the gene mutated in Usher III Syndrome (Adato et al., 2002). The most prevalent mutation in Clarin-1 in North America is N48K, which is reported to cause loss of glycosylation and a trafficking defect (Tian et al., 2009). […] Thus it is believed that restoring the trafficking of N48K Clarin-1 to the cell surface provides an avenue of intervention for Usher III Sydrome.
(§2) In a typical experiment, these cells were seeded on collagen-coated 96-well plates at a cell density of 20,000 cells per well in Dulbecco's Modified Eagle Medium (DMEM) contain 10% fetal bovine serum in a humidified incubator at 37° C., 5% CO2. After an overnight incubation, compounds were added for a 24 hr incubation in DMEM medium contain 10% fetal bovine serum in a humidified incubator at 37° C., 5% CO2. As a negative control, DMSO was used at 0.25% final concentrations. Compounds were typically tested in triplicate fashion. After the 24 hr incubation with compounds, the cells were fixed by the addition of 10% buffered formalin to the wells to achieve a final concentration of 4% formalin. After a 20 min fixation at room temperature, wells were washed three times with phosphate-buffered saline (PBS) containing Triton X-100 (0.02 phosphate, 150 mM NaCl, 0.1% Triton X-100).
(§3) The HA-tagged N48K Clarin-1 was detected with an antibody against the HA tag (HA.11 Clone 16B12 Monoclonal antibody, Covance #MMS-101P) at a dilution of 1:1000 in PBS containing Triton X-100. After a 90 min incubation, wells were washed three times with PBS containing Triton X-100, and a secondary antibody (Goat anti-mouse IgG-Cy3 (1.5 mg/ml), Jackson IR Europe #115165003) was added to the wells at a dilution of 1:250 in PBS containing Triton X-100 for 45 min. Wells were subsequently washed three times with PBS containing Triton X-100, and a final staining for nuclei was performed by the addition of DAPI (4′,6-diamidino-2-phenylindole) at a dilution of 1:10,000. The imaging of the stained cells was performed on an InCell 1000 High Content Imager (GE Healthcare), reading out the Cy3 channel for N48K Clarin-1 and the DAPI channel for nuclei. The images were analyzed and quantitated using a specific algorithm. This algorithm measured the HA-Clarin-1 staining for each cell based on the additional nuclear segmentation of the DAPI signal (FIG. 1). This algorithm measured the intensity per cell, and thus it is less sensitive for variation in cell number. Per well, approximately 2,000 cells were measured to achieve an average density per cell measurement. FIG. 1 illustrates high content analysis. DAPI-stained nuclei are used to perform segmentation of the image into individual cells. The density observed in the N48K Clarin-1 channel (Cy3) is then calculated per cell averaged over a field.

Question: How did the IC50 turn out when `OCCn1nc(C2CC2)c2c(Cl)c(-c3ccccc3)nnc21` [Iff, 2-(4-chloro-3-cyclopropyl-5-phenyl-pyrazolo[3,4-c]pyridazin-1-yl)ethanol] was run?
Answer: Its IC50 is “A, B”.

Same assay, conditions: HEK293-Clarin-1 N48K-HA D9 cell line, 24 hr incubation with compound; read-out: IC50 (the source's name)

Question: `Cc1nn(CC(=O)N2CCCC2)c2nnc(-c3ccccc3)c(Cl)c12` [Iw, 2-(4-chloro-3-methyl-5-phenyl-pyrazolo[3,4-c]pyridazin-1-yl)-1-pyrrolidin-1-yl-ethanone] was tested. Which EC50 did it give?
Answer: Its EC50 is 2 to 5 µM.

Question: Which EC50 does the source give for `CN1CCN(CCn2ncc3c(Cl)c(-c4ccccc4)nnc32)CC1` [Ib, 4-Chloro-1-(2-(4-methylpiperazin-1-yl)ethyl)-5-phenyl-1H-pyrazolo[3,4-c]pyridazine] here?
Answer: The EC50 was 5 to 21 µM.

Question: For `Cn1nc(C2CC2)c2c(Cl)c(-c3ccccc3)nnc21` [Compound 21, 4-chloro-3-cyclopropyl-1-methyl-5-phenyl-pyrazolo[3,4-c]pyridazine], which EC50 is on record?
Answer: Its EC50 is 2 to 5 µM.

Question: Which EC50 does the source give for `Cc1nn(CCN2CCN(C)CC2)c2nnc(-c3ccccc3)c(Cl)c12` [Iv, 4-chloro-3-methyl-1-[2-(4-methylpiperazin-1-yl)ethyl]-5-phenyl-pyrazolo[3,4-c]pyridazine] here?
Answer: The EC50 was ≤ 2 µM.

Question: `Cc1n[nH]c2nnc(-c3ccccc3)c(Cl)c12` [Iu, 4-chloro-3-methyl-5-phenyl-1H-pyrazolo[3,4-c]pyridazine] was tested. Which EC50 did it give?
Answer: The EC50 was 2 to 5 µM.

Question: `CN1CCN(CCn2nc(/C=C/c3ccccc3)c3c(Cl)c(-c4ccccc4)nnc32)CC1` [Ig, (E)-4-chloro-1-(2-(4-methylpiperazin-1-yl)ethyl)-5-phenyl-3-styryl-1H-pyrazolo[3,4-c]pyridazine] was tested. Which EC50 did it give?
Answer: Its EC50 is ≤ 2 µM.

Question: `CN1CCN(CCn2nc3nnc(-c4ccccc4)c(Cl)c3c2I)CC1` [Compound 20, 4-Chloro-3-iodo-2-(2-(4-methylpiperazin-1-yl)ethyl)-5-phenyl-2H-pyrazolo[3,4-c]pyridazine] was tested. Which EC50 did it give?
Answer: The EC50 was 5 to 21 µM.

Question: For `CN1CCN(CCn2nc(-c3ccnc(C(F)(F)F)c3)c3c(Cl)c(-c4ccccc4)nnc32)CC1` [Ie, 4-chloro-1-(2-(4-methylpiperazin-1-yl)ethyl)-5-phenyl-3-(2-(trifluoromethyl)pyridin-4-yl)-1H-pyrazolo[3,4-c]pyridazine], which EC50 is on record?
Answer: The EC50 was ≤ 2 µM.

Question: `Clc1c(-c2ccccc2)nnc2c1c(-c1ccccc1)nn2C1CCOCC1` [IIe, 4-chloro-3,5-diphenyl-1-tetrahydropyran-4-yl-pyrazolo[3,4-c]pyridazine] was tested. Which EC50 did it give?
Answer: Its EC50 is ≤ 2 µM.

Question: `Clc1c(-c2ccccc2)nnc2c1c(-c1ccccc1)nn2Cc1ccccn1` [IIp, 4-chloro-3,5-diphenyl-1-(2-pyridylmethyl)pyrazolo[3,4-c]pyridazine] was tested. Which EC50 did it give?
Answer: The EC50 was ≤ 2 µM.

Question: Which EC50 does the source give for `FC(F)(F)CCn1nc(-c2ccccc2)c2c(Cl)c(-c3ccccc3)nnc21` [IId, 4-chloro-3,5-diphenyl-1-(3,3,3-trifluoropropyl)pyrazolo[3,4-c]pyridazine] here?
Answer: The EC50 was ≤ 2 µM.

Question: Which EC50 does the source give for `CN1CCN(CCn2nc(-c3cc4ccccc4o3)c3c(Cl)c(-c4ccccc4)nnc32)CC1` [Ij, 3-(benzofuran-2-yl)-4-chloro-1-(2-(4-methylpiperazin-1-yl)ethyl)-5-phenyl-1H-pyrazolo[3,4-c]pyridazine] here?
Answer: The EC50 was ≤ 2 µM.

Question: `CN1CCN(CCn2nc(-c3cccc(C(=O)N4CCCC4)c3)c3c(Cl)c(-c4ccccc4)nnc32)CC1` [Id, (3-(4-chloro-1-(2-(4-methylpiperazin-1-yl)ethyl)-5-phenyl-1H-pyrazolo[3,4-c]pyridazin-3-yl)phenyl)(pyrrolidin-1-yl)methanone] was tested. Which EC50 did it give?
Answer: The EC50 was ≤ 2 µM.

Question: With `CN(C)CCNC(=O)Cn1nc(-c2cccnc2)c2c(Cl)c(-c3ccccc3)nnc21` [Igg, 2-[4-chloro-5-phenyl-3-(3-pyridyl)pyrazolo[3,4-c]pyridazin-1-yl]-N-(2-dimethylaminoethyl)acetamide] as the compound, how does the EC50 read?
Answer: The EC50 was 2 to 5 µM.

Question: Which EC50 does the source give for `CC(=O)CCn1nc(-c2ccccc2)c2c(Cl)c(-c3ccccc3)nnc21` [IIm, 4-(4-chloro-3,5-diphenyl-pyrazolo[3,4-c]pyridazin-1-yl)butan-2-one] here?
Answer: The EC50 was ≤ 2 µM.

Question: `Cn1nc(C2CCCC2)c2c(Cl)c(-c3ccccc3)nnc21` [Compound 27, 4-chloro-3-cyclopentyl-1-methyl-5-phenyl-pyrazolo[3,4-c]pyridazine] was tested. Which EC50 did it give?
Answer: The EC50 was 2 to 5 µM.

Question: `Clc1c(-c2ccccc2)nnc2[nH]nc(C3CC3)c12` [Idd, 4-chloro-3-cyclopropyl-5-phenyl-1H-pyrazolo[3,4-c]pyridazine] was tested. Which EC50 did it give?
Answer: The EC50 was ≤ 2 µM.

Question: Which EC50 does the source give for `CN1CCN(CCn2nc(-c3cc4ccccc4[nH]3)c3c(Cl)c(-c4ccccc4)nnc32)CC1` [Im, 4-chloro-3-(1H-indol-2-yl)-1-(2-(4-methylpiperazin-1-yl)ethyl)-5-phenyl-1H-pyrazolo[3,4-c]pyridazine] here?
Answer: The EC50 was ≤ 2 µM.

Target: T1, N48K Clarin-1
Experiment: Restoration of expression of N48K Clarin-1, 2 hour incubation then 22 hr fresh medium (high content imaging of HA-tagged N48K Clarin-1)
Type: cell-based
Conditions: HEK293-Clarin-1 N48K-HA D9 cell line, 2 hr incubation with compound, then 22 hr in fresh medium
Protocol: An Assay Method Showing Activity of Compounds of the Invention that Restore Expression of N48K Clarin-1(2 hour incubation)
as §1
as §2, with “for a 2 hr incubation” for “for a 24 hr incubation”, “After the 2 hr incubation” for “After the 24 hr incubation”, “cells were incubated in fresh medium for 22 hr. The cells were then fixed by” for “cells were fixed by”
as §3, with “images are” for “images were”, “measurement.” for “measurement. FIG. 1 illustrates high content analysis. DAPI-stained nuclei are used to perform segmentation of the image into individual cells. The density observed in the N48K Clarin-1 channel (Cy3) is then calculated per cell averaged over a field.”

Question: With `Fc1cccc(-c2nn(CCN3CC[C@@H](F)C3)c3nnc(-c4ccccc4)c(Cl)c23)c1` [IIx, 4-chloro-3-(3-fluorophenyl)-1-[2-[(3R)-3-fluoropyrrolidin-1-yl]ethyl]-5-phenyl-pyrazolo[3,4-c]pyridazine] as the compound, how does the IC50 read?
Answer: The IC50 was ≤ 4 µM.

Question: Which IC50 does the source give for `FC1(F)CN(CCn2nc(-c3ccccc3)c3c(Cl)c(-c4ccccc4)nnc32)C1` [IIw, 4-chloro-1-[2-(3,3-dilluoroazetidin-1-yl)ethyl]-3,5-diphenyl-pyrazolo[3,4-c]pyridazine] here?
Answer: Its IC50 is 4 to 8 µM.

Question: For `O=C(Cn1nc(I)c2c(Cl)c(-c3ccccc3)nnc21)N1CC[C@@H](F)C1` [It, 2-(4-chloro-3-iodo-5-phenyl-pyrazolo[3,4-c]pyridazin-1-yl)-1-[(3R)-3-fluoropyrrolidin-1-yl]ethanone], which IC50 is on record?
Answer: The IC50 was 4 to 8 µM.

Question: How did the IC50 turn out when `Clc1c(-c2ccccc2)nnc2c1c(C1=CCOCC1)nn2CCN1CCCC1` [Is, 4-chloro-3-(3,6-dihydro-2H-pyran-4-yl)-5-phenyl-1-(2-pyrrolidin-1-ylethyl)pyrazolo[3,4-c]pyridazine] was run?
Answer: Its IC50 is ≤ 4 µM.

Question: `FC1(F)CCN(CCn2nc(-c3ccccc3)c3c(Cl)c(-c4ccccc4)nnc32)C1` [IIv, 4-chloro-1-[2-(3,3-difluoropyrrolidin-1-yl)ethyl]-3,5-diphenyl-pyrazolo[3,4-c]pyridazine] was tested. Which IC50 did it give?
Answer: Its IC50 is 4 to 8 µM.

Question: How did the IC50 turn out when `F[C@@H]1CCN(CCn2nc(-c3ccccc3)c3c(Cl)c(-c4ccccc4)nnc32)C1` [IIu, 4-chloro-1-[2-1[(3R)-3-fluoropyrrolidin-1-yl]ethyl]-3,5-diphenyl-pyrazolo[3,4-c]pyridazine] was run?
Answer: The IC50 was ≤ 4 µM.
